Test results published in patent US20090233999A1, “COMPOSITIONS AND THERAPEUTIC METHODS INVOLVING ISOFLAVONES AND ANALOGUES THEREOF” (NOVOGEN RESEARCH PTY LTD, priority 1999, published 2009).

Columns and labels:
[1] = tested on: splenocytes (T and B cells); assay: Murine splenocyte viability and proliferation (Con A, LPS, no mitogen; MTT); assay type: cell-based, mouse; settings: 10 μM, 3 day; for proliferation of T and B cells: Con A / LPS; for effect on non-proliferating (resting) splenocytes: no mitogen
Protocol: (§1) Male Skh-1 (hairless) mice, approximately six weeks old were killed by cervical dislocation. Single cell suspensions were made from the spleen and erythrocytes were lysed in buffer (0.14M NH4Cl, 17 mM Tris, pH 7.2). The remaining splenocytes were cultured in RPMI-1640 (Gibco) supplemented with 10% (v:v) FBS, 2 mM L-glutamine, pen/strep and 50 μM 2-mercaptoethanol. Splenocytes were added to quadruplicate wells containing either the T cell mitogen concanavalin A (Con A, Sigma-Aldrich—0. 4 μg/well), the B-cell mitogen LPS (Sigma-Aldrich—1 μg/well) or no mitogen, as well as test compound at a concentration of 10 μM in DMSO. Samples were analysed after a 3 day incubation at 37° C. in 5% CO2 in air. Cell viability was assessed by adding MTT to each well, incubating for a further 4 hrs and then developing colour with 0.04N HCl in isopropanol. Supernatant samples were frozen at −80° C. and IL-6, IFN-γ and TNFα were detected in triplicate using ELISA kits (BD Biosciences).

TNFα [2] = assay: TNFα production by murine splenocytes; assay type: cell-based, mouse; settings: 10 μM; LPS
Protocol: as §1

TNFα [3] = assay: LPS-induced TNFα synthesis in human monocytes; assay type: cell-based; settings: 100 μM
Protocol: Test compounds (in DMSO) at 100, 10, and 1 μmol/ were incubated with monocytes at 37° C. for 30 min after which LPS was added (200 ng/ml) and cells were incubated in triplicate for 18 h at 37° C. in 5% CO2. […], supernatants were removed and TNFα measured by ELISA previously described.

[4] = tested on: COX (PGE2 and TXB2 synthesis); assay: LPS-induced prostanoid (PGE2, TXB2) synthesis in human monocytes; assay type: cell-based; settings: LPS 200 ng/mL, 18 hrs, data at 10 μM
Protocol: Human peripheral blood monocytes were isolated from buffy coats by lymphoprep gradient separation followed by counter-current centrifugal elutriation. Test compounds were dissolved in DMSO and added to fresh monocytes to achieve concentrations of 0, 10 and 100 μM. After 30 min, lipopolysaccharide (LPS) was added to achieve a final concentration of 200 ng/mL. After incubation for 18 hrs at 37° C. in 5% CO2, supernatants were removed and PGE2 and TXB2 (the stable hydrolysis product of TXA2) production were measured by radioimmunoassay (RIA). ANOVA followed by Newman-Keuls multiple comparisons test was used to examine differences between doses and the control values.

VCAM-1 = assay: TNFα-induced VCAM expression on HAECs (ELISA); assay type: cell-based, human; settings: 10 μM
Protocol: Inhibition of TNFα-stimulated endothelial cell activation by compounds was assessed by measuring surface expression of cell adhesion molecules with an ELISA. Human arterial endothelial cells (HAECs) in growth medium (Cell Applications Inc.) were seeded into 96-well plates at a density of 10,000 cells per well. Plates were incubated overnight at 37° C. in a humidified incubator to allow for cells to become confluent. On the morning of the experiment, TNFα (10 μl, 2 ng/ml) was added to each well, which contained 100 μl of medium. Compounds were diluted in DMSO-containing medium (2.5% DMSO) to give a compound concentration of 100 and 300 μM. Compounds were added to wells so that final concentrations were 10 and 30 μM. DMSO-containing medium alone was added to zero concentration control wells. All samples were measured in quadruplicate (4 wells per treatment).
After incubation with compound for 4 hours, medium was removed and cells were probed with either non-specific IgG or specific mouse antibodies against VCAM, ICAM or E-selectin (BD Biosciences—0.1 μg in 100 μL buffered saline with 10% heat-inactivated human serum). Adhesion molecule expression was detected by addition of sheep anti-mouse antibody/horseradish peroxidase conjugate. Plates were allowed to stand for 30 minutes—monolayers were then washed, and sheep anti-mouse antibody/horseradish peroxidase conjugate (1:500 in 100 μL HBSS with 10% heat-inactivated human serum and 0.05% Tween 20) was added and left for 30 minutes. After further washing, 150 μL ABTS substrate (Kirkegaard and Perry Laboratories) was added to each well and allowed to develop for 15 minutes. Optical density was measured at 405 nm with an ELISA reader (Titertek Multiscan, Flow Laboratories).

rat aortic ring = assay: Rat aortic ring assay, contractile response to noradrenaline; settings: 1 μg/ml
Protocol: The vasodilatory capacity was examined ex vivo using the rat aortic ring assay.
Male Sprague-Dawley rats (250±50 g) were euthanased with 80% CO2 and 20% O2. The thoracic aorta was excised and quickly mounted in organ-baths as described. Full concentration-contractile curves were obtained to noradrenaline (0.1 nM-[…]) with and without test compounds delivered at a concentration of 1 μg/ml. Experiments were repeated in n=5 different rings from 5 different animals. Only one compound at any one concentration was tested on any one ring from any one animal. Sigmoidal dose response curves were fitted for the data and the logEC50 and the Ema, calculated (Prism 4, GraphPad Software). The difference in these values between the presence and absence of test compound was calculated using a two-tailed paired t test. The effects of β-oestrodiol and vehicle alone were examined as a positive and negative control respectively.

## Cc1c(O)ccc2c1OCC(c1cccc(O)c1)=C2 [Cpd. 14, 3′,7-Dihydroxy-8-methylisoflav-3-ene]
[1]
  proliferation of T and B cells: augmented
  effect on non-proliferating (resting) splenocytes: augmented
TNFα [2]
  TNFα synthesis by B cells: induced
TNFα [3]
  synthesis of TNFα: inhibited
[4]
  COX inhibitory activity (inhibition of PGE2 and TXA2 production): significant COX inhibitory activity

## COc1ccc(C2=Cc3ccc(O)cc3OC2)cc1OC [Cpd. 18, 7-Hydroxy-3′,4′-dimethoxyisoflav-3-ene]
VCAM-1
  TNFα-induced VCAM expression: significantly inhibited
Rat aortic ring
  contractile response (logEC50) of the aortic ring to noradrenaline: inhibited
TNFα [3]
  synthesis of TNFα: inhibited
[4]
  COX inhibitory activity (inhibition of PGE2 and TXA2 production): significant COX inhibitory activity

## Oc1ccc(C2=Cc3ccc(O)c(Br)c3OC2)cc1 [Cpd. 20, 4′,7-Dihydroxy-8-bromoisoflav-3-ene]
VCAM-1
  TNFα-induced VCAM expression: significantly inhibited
[1]
  proliferation of T and B cells: inhibited
  effect on non-proliferating (resting) splenocytes: suppressive
TNFα [2]
  TNFα synthesis by B cells: induced
Rat aortic ring
  contractile response (logEC50) of the aortic ring to noradrenaline: significantly inhibited
  strength of the contractile response (Emax): reduced
[4]
  COX inhibitory activity (inhibition of PGE2 and TXA2 production): significant COX inhibitory activity

## COc1ccc(C2=Cc3ccc(O)c(C)c3OC2)cc1OC [Cpd. 19, 7-Hydroxy-3′,4′-dimethoxy-8-methylisoflav-3-ene]
VCAM-1
  TNFα-induced VCAM expression: significantly inhibited
TNFα [2]
  TNFα synthesis by B cells: inhibited
TNFα [3]
  synthesis of TNFα: inhibited
[4]
  COX inhibitory activity (inhibition of PGE2 and TXA2 production): significant COX inhibitory activity

## COc1cccc(C2=Cc3ccc(O)cc3OC2)c1 [Cpd. 16, 7-Hydroxy-3′-methoxyisoflav-3-ene]
VCAM-1
  TNFα-induced VCAM expression: intermediate activity
[1]
  proliferation of T and B cells: augmented
  effect on non-proliferating (resting) splenocytes: augmented
TNFα [2]
  TNFα synthesis by B cells: induced
[4]
  COX inhibitory activity (inhibition of PGE2 and TXA2 production): significant COX inhibitory activity

## Oc1ccc2c(c1)OCC(c1ccc(Br)cc1)=C2 [Cpd. 21, 4′-Bromo-7-hydroxyisoflav-3-ene]
TNFα [2]
  TNFα synthesis by B cells: induced
Rat aortic ring
  contractile response (logEC50) of the aortic ring to noradrenaline: inhibited
